“And” between values parts separate entries of the source, which are not always exact repeats. Equal values may be shown once.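 Method: 48-hour compound exposure of cells in 96-well plates, five concentrations, linear interpolation of endpoints. Here, GI50 denotes the concentration required for 50% inhibition of growth. The concentration for full growth arrest is given as TGI.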
Assays:
Assay in all cases: NCI tumour cell line growth inhibition, 48 h
[1] = test system: SR leukemia
[2] = test system: NCI-H226 lung
[3] = test system: MCF7 breast
[4] = test system: LOX IMVI melanoma
[5] = test system: MDA-MB-231 breast
[6] = test system: SF-268 CNS
[7] = test system: COLO 205 colon
[8] = test system: OVCAR-8 ovarian
[9] = test system: UACC-257 melanoma
[10] = test system: EKVX NSCLC

| Compound | GI50 [1] [µM] | TGI [1] | GI50 [2] | TGI [2] | GI50 [3] | TGI [3] | GI50 [4] | TGI [4] | GI50 [5] | TGI [5] | GI50 [6] | TGI [6] | GI50 [7] | TGI [7] | GI50 [8] | TGI [8] | GI50 [9] | TGI [9] | GI50 [10] [µM] | TGI [10] |
| --- | --- | --- | --- | --- | --- | --- | --- | --- | --- | --- | --- | --- | --- | --- | --- | --- | --- | --- | --- | --- |
| COc1ccc(N(C)c2nc(N)nc3sc4c(c23)CCCC4)cc1 | < 0.01 | 11 µM | 0.616 µM | 22.3 µM | < 0.01 µM | 14.8 µM | < 0.01 µM | 15.3 µM | < 0.01 µM | 0.918 µM | < 0.0159 µM | 14.5 µM | 0.021 µM | 0.0573 µM | < 0.0171 µM | 14.9 µM | 8.12 µM | 26.3 µM | < 0.01 | 18.7 µM |
| COc1cc2cc(Oc3ccc(NC(=O)Nc4ccc(Cl)c(Cl)c4)cc3)c(C)nc2cc1OC | 3.1 | 10.3 µM | 3.12 µM | 8.68 µM | 2.89 µM | 13.8 µM | 3.45 µM | 14.6 µM | 2.46 µM | 12 µM | 8.23 µM | > 100 µM | 2.75 µM | 6.5 µM | 3.54 µM | 12.9 µM | 2.31 µM | 6.28 µM | 2.36 | 9.51 µM |
| CSc1ccc2c(c1)C(N1CCN(C)CC1)Cc1ccccc1S2 (centres undefined) | 1.66 | 5.21 µM and 3.83 µM | 1.8 µM | 24.9 µM and 3.94 µM | 1.79 µM | 7.22 µM and 3.58 µM | 1.63 µM | 4.05 µM and 3.05 µM | 1.85 µM | 13.7 µM and 3.65 µM | 2.1 µM | 14.7 µM and 5.55 µM | 1.76 µM | 3.74 µM and 3.29 µM | 2.07 µM | 22.8 µM and 5.35 µM | 1.54 µM | 5.43 µM and 3.03 µM | 2.08 | 8.64 µM and 7.13 µM |
| CN1CSC(=S)N(Cc2ccccc2)C1 | 2.11 | > 100 µM | 70.5 µM | > 100 µM | 3.18 µM | 17.6 µM | 2.75 µM | 11.6 µM | 13.6 µM | 37.7 µM | 14.8 µM | 36.1 µM | 15 µM | 32.3 µM | 25.2 µM | > 100 µM | 13.7 µM | 30.4 µM | 30.3 | > 100 µM |
| N#CC1c2ccccc2C=CN1C(=O)N(c1ccccc1)c1ccccc1 (centres undefined) | 2.14 | 6.32 µM | 3.76 µM | 15.2 µM | 2.9 µM | 9.56 µM | 2.04 µM | 4.61 µM | 2.94 µM | 8.35 µM | 4.31 µM | 15.4 µM | 1.83 µM | 3.43 µM | 13.3 µM | 54.1 µM | 2.29 µM | 6.2 µM | 5.7 | 18.9 µM |
| N=c1c2c(=N)n3c(nc2nc2n1-c1ccccc1Sc1ccccc1-2)sc1cc(Cl)ccc13 | 2.77 | > 100 µM | 1.73 µM | 16.8 µM | 2.21 µM | > 100 µM | 2.7 µM | 14.6 µM | 2.8 µM | 14 µM | 3.42 µM | > 100 µM | 3.72 µM | 32.5 µM | 3.1 µM | 67.9 µM | 2.59 µM | 54.8 µM | 1.24 | 7.46 µM |
| Cn1c(-c2c(N)n(CCCN3CCOCC3)c3nc(C#N)c(C#N)nc23)nc2ccccc21 | 2.66 | > 26.6 µM | 27.8 µM | > 52.9 µM | 1.48 µM | > 43.8 µM | 11.3 µM | > 52.5 µM | 7.87 µM | > 53.1 µM | 7.16 µM | 62.2 µM | > 42.8 µM | > 61.7 µM | 4.99 µM | > 100 µM | 25.7 µM | > 100 µM | > 57 | > 100 µM |
| CN(CC(=O)N(Cc1ccc(C2CCCCC2)cc1)c1ccc(C(=O)O)cc1)S(=O)(=O)c1c(F)c(F)c(F)c(F)c1F | 2.64 | 7.89 µM | 2.49 µM | 5.51 µM | 1.65 µM | 3.48 µM | 1.61 µM | 3.03 µM | 1.9 µM | 3.51 µM | 1.85 µM | 3.59 µM | 1.97 µM | 3.95 µM | 2.5 µM | 5.79 µM | 2.01 µM | 3.71 µM | 1.63 | 3.58 µM |
| Cn1ncc(Cl)c1-c1cc(C(=O)N[C@H](CN)Cc2ccc(F)c(F)c2)oc1Cl |  | 2.74 µM and 4.36 µM | 5.91 µM and 2.29 µM | 24.7 µM and > 10 µM | 0.257 µM and 0.139 µM | 9.66 µM and 2.89 µM | 2.65 µM and 1.44 µM | 19.9 µM and 4.19 µM | 2.59 µM and 1.72 µM | 9.87 µM and 5.76 µM | 3.36 µM and 2.08 µM | 17.1 µM and > 10 µM | 0.593 µM and 0.575 µM | 5.84 µM and 3.22 µM | 9.13 µM and 4.99 µM | 23.7 µM and > 10 µM | 1.64 µM and 1.21 µM | 7.21 µM and 3.16 µM | 2.77 | > 10 µM |

— PubChem BioAssay (NCI)
